The text below walks through data of patent US8268848B2, “Cyclopropane compound” (Eisai R&D Management Co., Ltd., priority 2010, dated 2012).

Like-named read-outs stand apart in the source and are kept apart here.

Assay [1] concerns the target T1, OX1 (Homo sapiens, UniProt O43613).
T1 sequence (O43613 1-425): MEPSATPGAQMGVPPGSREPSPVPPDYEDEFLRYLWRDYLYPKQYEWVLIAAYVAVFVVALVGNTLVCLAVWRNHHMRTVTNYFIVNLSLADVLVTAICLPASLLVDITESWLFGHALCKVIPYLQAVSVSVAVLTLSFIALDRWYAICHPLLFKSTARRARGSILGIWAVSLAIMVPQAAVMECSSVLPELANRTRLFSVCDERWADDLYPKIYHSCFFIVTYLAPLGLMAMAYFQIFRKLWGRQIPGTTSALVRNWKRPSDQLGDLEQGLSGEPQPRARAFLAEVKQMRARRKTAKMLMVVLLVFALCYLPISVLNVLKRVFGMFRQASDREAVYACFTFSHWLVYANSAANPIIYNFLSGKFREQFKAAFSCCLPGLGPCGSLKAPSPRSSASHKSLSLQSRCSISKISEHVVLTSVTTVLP
The assay can be described thus: Measurement of orexin receptor-binding ability ([125I]-OX-A, cell membranes, OX1). More on the design: expressed in transfected cells; host or cells: CHO cells (membrane preparation).

In assay [2] the target is T2, OX2 (Homo sapiens, UniProt O43614).
T2 sequence (O43614 1-444): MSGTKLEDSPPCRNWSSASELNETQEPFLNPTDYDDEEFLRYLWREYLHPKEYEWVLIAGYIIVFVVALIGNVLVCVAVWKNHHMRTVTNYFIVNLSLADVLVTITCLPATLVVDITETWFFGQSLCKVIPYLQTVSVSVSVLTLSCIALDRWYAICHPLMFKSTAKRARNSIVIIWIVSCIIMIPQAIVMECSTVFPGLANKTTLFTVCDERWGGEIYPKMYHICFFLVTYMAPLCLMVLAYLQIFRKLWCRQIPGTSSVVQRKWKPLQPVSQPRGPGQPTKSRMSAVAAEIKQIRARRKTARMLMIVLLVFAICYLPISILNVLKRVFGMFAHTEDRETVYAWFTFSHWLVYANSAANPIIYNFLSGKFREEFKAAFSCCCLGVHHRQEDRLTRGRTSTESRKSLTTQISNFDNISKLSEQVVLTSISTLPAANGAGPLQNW
The assay can be described thus: Measurement of orexin receptor-binding ability ([125I]-OX-A, cell membranes, OX2). Details: expressed in transfected cells; host or cells: CHO cells (membrane preparation). The conditions noted are these: membranes of recombinant CHO cells expressing OX2, 0.2 nM [125I]-OX-A.

The mark [3] stands for this setting: membranes of recombinant CHO cells expressing OX1, 0.2 nM [125I]-OX-A, read-out: OX1 (IC50).

In the case of `Cc1ncc(OC[C@@]2(c3cc(F)cc(F)c3)C[C@H]2C(=O)Nc2ccc(Cl)cn2)c(C)n1` [Example 132, (1R,2S)-N-(5-chloropyridin-2-yl)-2-(3,5-difluorophenyl)-2-{[(2,4-dimethylpyrimidin-5-yl)oxy]methyl}cyclopropanecarboxamide], the IC50 in assay [1] was 18 nM; in assay [2] (OX2 (IC50) nM), 4 nM.
In the same order, the values of `Cc1ncc(OC[C@@]2(c3cc(F)cc(F)c3)C[C@H]2C(=O)Nc2ccc(F)cn2)c(C)n1` [Example 133, (1R,2S)-2-(3,5-difluorophenyl)-2-{[(2,4-dimethylpyrimidin-5-yl)oxy]methyl}-N-(5-fluoropyridin-2-yl)cyclopropanecarboxamide] are 7 nM and 3 nM.
For `Cc1ncc(OC[C@@]2(c3cc(F)cc(F)c3)C[C@H]2C(=O)Nc2ccc(F)c(F)c2)c(C)n1` [Example 134, (1R,2S)-N-(3,4-difluorophenyl)-2-(3,5-difluorophenyl)-2-{[(2,4-dimethylpyrimidin-5-yl)oxy]methyl}cyclopropanecarboxamide], the figures for the 50% inhibitory concentration (IC50) in assay [1] (setting [3]) and in assay [2] (read-out: OX2 (IC50)) were less than 2 nM and 4 nM, respectively.
As to `Cc1ncc(OC[C@@]2(c3cc(F)cc(F)c3)C[C@H]2C(=O)Nc2ccc(F)cc2F)c(C)n1` [Example 135, (1R,2S)-N-(2,4-difluorophenyl)-2-(3,5-difluorophenyl)-2-{[(2,4-dimethylpyrimidin-5-yl)oxy]methyl}cyclopropanecarboxamide], the IC50 came to 14 nM in assay [1] (setting [3]) and 8 nM in assay [2] (read-out: OX2 (IC50)).
For the molecule `Cc1ncc(OC[C@@]2(c3cc(F)cc(F)c3)C[C@H]2C(=O)Nc2ccc(C#N)cn2)c(C)n1` [Example 137, (1R,2S)-N-(5-cyanopyridin-2-yl)-2-(3,5-difluorophenyl)-2-{[(2,4-dimethylpyrimidin-5-yl)oxy]methyl}cyclopropanecarboxamide], the IC50 in assay [1] stood at 97 nM; in assay [2] (OX2 (IC50) nM) it was 4 nM.
`COc1cc(NC(=O)[C@@H]2C[C@@]2(COc2cnc(C)nc2C)c2cc(F)cc(F)c2)ncc1F` [Example 138, (1R,2S)-2-(3,5-difluorophenyl)-2-{[(2,4-dimethylpyrimidin-5-yl)oxy]methyl}-N-(5-fluoro-4-methoxypyridin-2-yl)cyclopropanecarboxamide]: the IC50 turned out to be 2.6 nM in assay [1] (setting [3]) and 2.4 nM in assay [2] (read-out: OX2 (IC50)).
`COCc1nc(C)ncc1OC[C@@]1(c2ccccc2)C[C@H]1C(=O)Nc1ccc(C#N)cn1` [Example 140, (1R,2S)-N-(5-cyanopyridin-2-yl)-2-{[(4-(methoxymethyl)-2-methylpyrimidin-5-yl)oxy]methyl}-2-phenylcyclopropanecarboxamide]: the IC50 in assay [1] (setting [3]) was found to be 44 nM; in assay [2] (read-out: OX2 (IC50)), 8.9 nM.
In the same order, the values of `COCc1nc(C)ncc1OC[C@@]1(c2ccccc2)C[C@H]1C(=O)Nc1nc(C)cs1` [Example 142] are 331 nM and 36 nM.
Take `Cc1ncc(OCC2(c3ccccc3Cl)CC2C(=O)Nc2ccc(F)cn2)c(C)n1` (stereo not drawn) [Example 151]: the IC50 was 102 nM in assay [1] and 25 nM in assay [2] (OX2 (IC50) nM).
In the same order, the values of `Cc1ncc(OCC2(c3ccccc3Cl)CC2C(=O)Nc2ccc(Cl)cn2)c(C)n1` (stereo not drawn) [Example 152] are 58 nM and 36 nM.
`Cc1ncc(OCC2(c3ccccc3Cl)CC2C(=O)Nc2ccc(C#N)cn2)c(C)n1` (stereo not drawn) [Example 153]: the IC50 in assay [1] was 447 nM; in assay [2] (OX2 (IC50) nM) it was 32 nM.
Turning to `Cc1ncc(OCC2(c3cccc(Cl)c3)CC2C(=O)Nc2ccc(F)cn2)c(C)n1` (stereo not drawn) [Example 154], the figures for the IC50 in assay [1] and in assay [2] (OX2 (IC50) nM) were 6 nM and 7 nM, respectively.
As to `Cc1ncc(OCC2(c3cccc(Cl)c3)CC2C(=O)Nc2ccc(Cl)cn2)c(C)n1` (stereo not drawn) [Example 155], the 50% inhibitory concentration (IC50) in assay [1] amounted to 10 nM; in assay [2] (OX2 (IC50) nM), 6 nM.
In the same order, the values of `Cc1ncc(OCC2(c3cccc(Cl)c3)CC2C(=O)Nc2ccc(C#N)cn2)c(C)n1` (stereo not drawn) [Example 156] are 42 nM and 13 nM.
In the same order, the values of `Cc1ncc(OCC2(c3cccc(Cl)c3)CC2C(=O)Nc2cccnc2)c(C)n1` (stereo not drawn) [Example 157] are 397 nM and 69 nM.
